Consider 32 compounds from patent US10428044B2, “3-amino-1,5,6,7-tetrahydro-4H-indol-4-ones” (Bayer Pharma Aktiengesellschaft, priority 2014, dated 2019).

Chain of (recombinant) catalytic domain of human Bub1 (amino acids 704-1085) (O43683 704-1085): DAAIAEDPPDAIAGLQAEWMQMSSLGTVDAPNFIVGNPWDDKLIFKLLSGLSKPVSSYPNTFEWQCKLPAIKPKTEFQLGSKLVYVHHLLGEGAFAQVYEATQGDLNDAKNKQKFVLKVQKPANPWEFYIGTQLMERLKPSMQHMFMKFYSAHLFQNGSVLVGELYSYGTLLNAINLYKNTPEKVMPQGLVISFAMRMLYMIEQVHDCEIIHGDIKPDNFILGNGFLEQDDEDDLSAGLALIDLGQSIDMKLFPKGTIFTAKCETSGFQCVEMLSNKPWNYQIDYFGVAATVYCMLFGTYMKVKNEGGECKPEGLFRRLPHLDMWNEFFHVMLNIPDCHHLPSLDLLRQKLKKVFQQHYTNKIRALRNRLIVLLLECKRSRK

This assay deals with (recombinant) catalytic domain of human Bub1 (amino acids 704-1085) (Homo sapiens (Human), UniProt O43683). The experiment in a line: Bub1 kinase assay (TR-FRET). Format: biochemical. The settings on record: ATP 10 μM final, peptide substrate 1 μM final, 60 min at 22° C., read-out: Biological Assay: Bub1 kinase assay median IC50. Summed up:
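Compounds were serially diluted 1:3.4 from 2 mM DMSO stocks and incubated with the enzyme reaction for 60 min at 22° C. The reaction was stopped with EDTA, and biotinylated peptide phosphorylation was read by TR-FRET using Eu anti-mouse IgG, anti-phosphoserine antibody and streptavidin-XL665. IC50 was fitted by 4-parameter logistic to inhibition normalized to no-inhibitor and no-enzyme controls.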
(In TR-FRET formats the signal depends on donor and acceptor labels being close together.)
In general, IC50 refers to the midpoint of a concentration-inhibition curve. For `CC(=O)Nc1cc(-c2[nH]c3c(c2Nc2ccc(F)c(F)c2)C(=O)CC(C(C)C)C3)ccn1` (centres unmarked) [Example 323, N-{4-[3-[(3,4-difluorophenyl)amino]-4-oxo-6-(propan-2-yl)-4,5,6,7-tetrahydro-1H-indol-2-yl]pyridin-2-yl}acetamide], the IC50 came to 0.0216 µM.

Take `CC(C)C1CC(=O)c2c([nH]c(-c3ccnc(NC(=O)C4CC4)c3)c2Nc2ccc(F)c(F)c2)C1` (centres unmarked) [Example 324, N-{4-[3-[(3,4-difluorophenyl)amino]-4-oxo-6-(propan-2-yl)-4,5,6,7-tetrahydro-1H-indol-2-yl]pyridin-2-yl}cyclopropanecarboxamide]: the IC50 came out at 0.0264 µM. For the compound `COCC(=O)Nc1cc(-c2[nH]c3c(c2Nc2ccccc2)C(=O)CCC3)ccn1` [Example 325, 2-methoxy-N-{4-[4-oxo-3-(phenylamino)-4,5,6,7-tetrahydro-1H-indol-2-yl]pyridin-2-yl}acetamide], the IC50 was determined as 0.0198 µM. Then `COC(C)(C)C(=O)Nc1cc(-c2[nH]c3c(c2Nc2ccccc2)C(=O)CCC3)ccn1` [Example 326, 2-methoxy-2-methyl-N-{4-[4-oxo-3-(phenylamino)-4,5,6,7-tetrahydro-1H-indol-2-yl]pyridin-2-yl}propanamide], with 0.608 µM; and `CC(C)(O)C(=O)Nc1cc(-c2[nH]c3c(c2Nc2ccccc2)C(=O)CCC3)ccn1` [Example 327, 2-hydroxy-2-methyl-N-{4-[4-oxo-3-(phenylamino)-4,5,6,7-tetrahydro-1H-indol-2-yl]pyridin-2-yl}propanamide], with 0.28 µM; and `CCOC(C)(C)C(=O)Nc1cc(-c2[nH]c3c(c2Nc2ccccc2)C(=O)CCC3)ccn1` [Example 328], with 0.524 µM. Then `COC(C)C(=O)Nc1cc(-c2[nH]c3c(c2Nc2ccccc2)C(=O)CCC3)ccn1` (centres unmarked) [Example 329], with 0.0654 µM; and `CCCOCC(=O)Nc1cc(-c2[nH]c3c(c2Nc2ccccc2)C(=O)CCC3)ccn1` [Example 330, N-{4-[4-oxo-3-(phenylamino)-4,5,6,7-tetrahydro-1H-indol-2-yl]pyridin-2-yl}-2-propoxyacetamide], with 0.00783 µM; and `CC(C)COCC(=O)Nc1cc(-c2[nH]c3c(c2Nc2ccccc2)C(=O)CCC3)ccn1` [Example 331, 2-(2-methylpropoxy)-N-{4-[4-oxo-3-(phenylamino)-4,5,6,7-tetrahydro-1H-indol-2-yl]pyridin-2-yl}acetamide], with 0.013 µM. Then `CCCCOCC(=O)Nc1cc(-c2[nH]c3c(c2Nc2ccccc2)C(=O)CCC3)ccn1` [Example 333, 2-butoxy-N-{4-[4-oxo-3-(phenylamino)-4,5,6,7-tetrahydro-1H-indol-2-yl]pyridin-2-yl}acetamide], with 0.00733 µM; and `CCOCC(=O)Nc1cc(-c2[nH]c3c(c2Nc2ccccc2)C(=O)CCC3)ccn1` [Example 334, 2-ethoxy-N-{4-[4-oxo-3-(phenylamino)-4,5,6,7-tetrahydro-1H-indol-2-yl]pyridin-2-yl}acetamide], with 0.00936 µM.

With `C=CCOCC(=O)Nc1cc(-c2[nH]c3c(c2Nc2ccccc2)C(=O)CCC3)ccn1` [Example 335, N-{4-[4-oxo-3-(phenylamino)-4,5,6,7-tetrahydro-1H-indol-2-yl]pyridin-2-yl}-2-(prop-2-en-1-yloxy)acetamide], the IC50 amounted to 0.0099 µM. In the case of `C#CCOCC(=O)Nc1cc(-c2[nH]c3c(c2Nc2ccccc2)C(=O)CCC3)ccn1` [Example 336, N-{4-[4-oxo-3-(phenylamino)-4,5,6,7-tetrahydro-1H-indol-2-yl]pyridin-2-yl}-2-(prop-2-yn-1-yloxy)acetamide], the IC50 came to 0.00853 µM. As for `O=C(COc1ccccc1)Nc1cc(-c2[nH]c3c(c2Nc2ccccc2)C(=O)CCC3)ccn1` [Example 337, N-{4-[4-oxo-3-(phenylamino)-4,5,6,7-tetrahydro-1H-indol-2-yl]pyridin-2-yl}-2-phenoxyacetamide], the IC50 worked out at 0.0229 µM.

Consider `O=C(COc1cccc(F)c1)Nc1cc(-c2[nH]c3c(c2Nc2ccccc2)C(=O)CCC3)ccn1` [Example 338, 2-(3-fluorophenoxy)-N-{4-[4-oxo-3-(phenylamino)-4,5,6,7-tetrahydro-1H-indol-2-yl]pyridin-2-yl}acetamide], for which the IC50 worked out at 0.0316 µM. As for `O=C(COc1ccccc1F)Nc1cc(-c2[nH]c3c(c2Nc2ccccc2)C(=O)CCC3)ccn1` [Example 339, 2-(2-fluorophenoxy)-N-{4-[4-oxo-3-(phenylamino)-4,5,6,7-tetrahydro-1H-indol-2-yl]pyridin-2-yl}acetamide], the figure is 0.0394 µM. As for `O=C(COCc1ccccc1)Nc1cc(-c2[nH]c3c(c2Nc2ccccc2)C(=O)CCC3)ccn1` [Example 340, 2-(benzyloxy)-N-{4-[4-oxo-3-(phenylamino)-4,5,6,7-tetrahydro-1H-indol-2-yl]pyridin-2-yl}acetamide], the figure is 0.00725 µM; as for `O=C(COCc1ccc(F)cc1)Nc1cc(-c2[nH]c3c(c2Nc2ccccc2)C(=O)CCC3)ccn1` [Example 341, 2-[(4-fluorobenzyl)oxy]-N-{4-[4-oxo-3-(phenylamino)-4,5,6,7-tetrahydro-1H-indol-2-yl]pyridin-2-yl}acetamide], 0.00789 µM; as for `COc1ccc(COCC(=O)Nc2cc(-c3[nH]c4c(c3Nc3ccccc3)C(=O)CCC4)ccn2)cc1` [Example 342, 2-[(4-methoxybenzyl)oxy]-N-{4-[4-oxo-3-(phenylamino)-4,5,6,7-tetrahydro-1H-indol-2-yl]pyridin-2-yl}acetamide], 0.00712 µM.

Turning to `O=C(COC[C@@H]1CCCCO1)Nc1cc(-c2[nH]c3c(c2Nc2ccccc2)C(=O)CCC3)ccn1` [Example 343, N-{4-[4-oxo-3-(phenylamino)-4,5,6,7-tetrahydro-1H-indol-2-yl]pyridin-2-yl}-2-[(2S)-tetrahydro-2H-pyran-2-ylmethoxy]acetamide], the IC50 is 0.00845 µM.

On to `O=C(COc1ccsc1)Nc1cc(-c2[nH]c3c(c2Nc2ccccc2)C(=O)CCC3)ccn1` [Example 344, N-{4-[4-oxo-3-(phenylamino)-4,5,6,7-tetrahydro-1H-indol-2-yl]pyridin-2-yl}-2-(thiophen-3-yloxy)acetamide], for which the IC50 is 0.0198 µM. As to `O=C(COc1ccsc1Cl)Nc1cc(-c2[nH]c3c(c2Nc2ccccc2)C(=O)CCC3)ccn1` [Example 345, 2-[(2-chlorothiophen-3-yl)oxy]-N-{4-[4-oxo-3-(phenylamino)-4,5,6,7-tetrahydro-1H-indol-2-yl]pyridin-2-yl}acetamide], the IC50 turned out to be 0.0725 µM.

Regarding `Cc1cc(OCC(=O)Nc2cc(-c3[nH]c4c(c3Nc3ccccc3)C(=O)CCC4)ccn2)no1` [Example 346, 2-[(5-methyl-1,2-oxazol-3-yl)oxy]-N-{4-[4-oxo-3-(phenylamino)-4,5,6,7-tetrahydro-1H-indol-2-yl]pyridin-2-yl}acetamide], the IC50 worked out at 0.00988 µM. Then `O=C(COc1ccccn1)Nc1cc(-c2[nH]c3c(c2Nc2ccccc2)C(=O)CCC3)ccn1` [Example 347, N-{4-[4-oxo-3-(phenylamino)-4,5,6,7-tetrahydro-1H-indol-2-yl]pyridin-2-yl}-2-(pyridin-2-yloxy)acetamide], with 0.101 µM; and `O=C(COc1ccon1)Nc1cc(-c2[nH]c3c(c2Nc2ccccc2)C(=O)CCC3)ccn1` [Example 348, 2-(1,2-oxazol-3-yloxy)-N-{4-[4-oxo-3-(phenylamino)-4,5,6,7-tetrahydro-1H-indol-2-yl]pyridin-2-yl}acetamide], with 0.0102 µM. As for `Cc1noc(COCC(=O)Nc2cc(-c3[nH]c4c(c3Nc3ccccc3)C(=O)CCC4)ccn2)n1` [Example 349, 2-[(3-methyl-1,2,4-oxadiazol-5-yl)methoxy]-N-{4-[4-oxo-3-(phenylamino)-4,5,6,7-tetrahydro-1H-indol-2-yl]pyridin-2-yl}acetamide], the figure is 0.00819 µM; as for `Cc1cc(COCC(=O)Nc2cc(-c3[nH]c4c(c3Nc3ccccc3)C(=O)CCC4)ccn2)on1` [Example 350, 2-[(3-methyl-1,2-oxazol-5-yl)methoxy]-N-{4-[4-oxo-3-(phenylamino)-4,5,6,7-tetrahydro-1H-indol-2-yl]pyridin-2-yl}acetamide], 0.00653 µM. Then `Cn1nccc1COCC(=O)Nc1cc(-c2[nH]c3c(c2Nc2ccccc2)C(=O)CCC3)ccn1` [Example 351, 2-[(1-methyl-1H-pyrazol-5-yl)methoxy]-N-{4-[4-oxo-3-(phenylamino)-4,5,6,7-tetrahydro-1H-indol-2-yl]pyridin-2-yl}acetamide], with 0.00622 µM; and `O=C(COCc1ccco1)Nc1cc(-c2[nH]c3c(c2Nc2ccccc2)C(=O)CCC3)ccn1` [Example 352, 2-(furan-2-ylmethoxy)-N-{4-[4-oxo-3-(phenylamino)-4,5,6,7-tetrahydro-1H-indol-2-yl]pyridin-2-yl}acetamide], with 0.00668 µM; and `Cc1nnc(COCC(=O)Nc2cc(-c3[nH]c4c(c3Nc3ccccc3)C(=O)CCC4)ccn2)o1` [Example 353, 2-[(5-methyl-1,3,4-oxadiazol-2-yl)methoxy]-N-{4-[4-oxo-3-(phenylamino)-4,5,6,7-tetrahydro-1H-indol-2-yl]pyridin-2-yl}acetamide], with 0.0144 µM. In the case of `Cc1cc(COCC(=O)Nc2cc(-c3[nH]c4c(c3Nc3ccccc3)C(=O)CCC4)ccn2)no1` [Example 354, 2-[(5-methyl-1,2-oxazol-3-yl)methoxy]-N-{4-[4-oxo-3-(phenylamino)-4,5,6,7-tetrahydro-1H-indol-2-yl]pyridin-2-yl}acetamide], the IC50 stood at 0.00657 µM. Then `Cc1cnc(COCC(=O)Nc2cc(-c3[nH]c4c(c3Nc3ccccc3)C(=O)CCC4)ccn2)o1` [Example 355, 2-[(5-methyl-1,3-oxazol-2-yl)methoxy]-N-{4-[4-oxo-3-(phenylamino)-4,5,6,7-tetrahydro-1H-indol-2-yl]pyridin-2-yl}acetamide], with 0.00645 µM.
